According to US7883888B2, “Peptides selectively lethal to malignant and transformed mammalian cells” (The Research Foundation —The State University of New York, priority 2000, dated 2011):

Legend:
cultured cancer cells = cultured cancer cells treated with peptide without leader or with leader alone; format: cell-based; details: 100 μg/ml
Procedure: When cultured cancer cells were treated with a peptide with the primary structure of SEQ ID NO:1 without a leader sequence attached, at a dosage of 100 μg/ml, the cells were unaffected. Similarly, when cultured cancer cells were treated with leader sequence SEQ ID NO:4, the presently preferred leader sequence, at the same dosage, the cell were also unaffected.

[1] = tested on: malignant or normal cells; assay: control peptide with leader on malignant or normal cells; format: cell-based; details: leader SEQ ID NO:4 at carboxy terminal end of control peptide
From the text: When the leader sequence set forth in SEQ ID NO:4 was positioned at the carboxy terminal end of PNC29, a control protein having the following amino acid sequence: [sequence]

[2] = tested on: pancreatic carcinoma cells BMRPA1. TUC-3; assay: s.c. BMRPA1.TUC-3 xenotransplant in Nu/Nu mice, established tumors, osmotic pump delivery (Example II); format: in vivo
Procedure: Nu/Nu mice (Harlan Laboratories, Indianapolis, Ind., n=10) and weighing 20-22 g, were xenotransplanted subcutaneously (s.c.) with live pancreatic carcinoma cells BMRPA1. TUC-3 (1×10^6 cells/mouse) in the left hind region.
Each group was implanted s.c. with Alzet® osmotic pumps to deliver in a constant rate and over a defined period of 14 days a total volume of 0.095 ml volume of normal saline containing the respective peptide at a concentration of 20 mg/mouse. […] The pumps were filled according to the manufacturers guidelines and under sterile conditions The pumps were implanted s.c. on the left flank of the anaesthetized mice by creating a pocket underneath the mouse skin into which the tiny pumps were inserted. Each pocket was closed with a simple suture. From their inside chamber the pumps delivered continuously 0.25 μl/hr into each mouse. The mice were observed until they had recovered from the surgery when they were returned to the isolation ward of the animal facility. Since the animals were Nu/Nu mice and, thus, immuno-compromised they are highly susceptible when exposed to pathogens. Surgery and all preceding and post-surgical treatments were therefore performed in a sterile hood environment.

TUC-3 cells = assay: TUC-3 transformed pancreatic cancer cells in culture treated with synthetic peptide; format: cell-based, rat; details: for EFFECT: Table 3, leader is SEQ ID NO:4
From the text: (§1) A line of rat pancreatic acinar cells (BMRPA.430) grown in culture was transformed with K-ras.

[3] = tested on: human cancer cells, including homozygously p53 gene-deleted; assay: toxicity of subject peptides to human cancer cells; format: cell-based
Procedure: The following experiment was performed to compare effectiveness of subject peptides having the leader sequence attached to the amino terminal end.

BMRPA.430 cells = assay: normal pancreatic acinar cells BMRPA.430 in culture treated with synthetic peptide; format: cell-based, rat; details: 50 μg/ml; normal cell line
From the text: as §1

[4] = tested on: human breast carcinoma cell lines; assay: human breast carcinoma cell lines treated with synthetic peptide; format: cell-based; details: 100 μg/ml
Melanoma cells = Melanoma cells treated with synthetic peptide; format: cell-based; details: 100 μg/ml
HeLa cells = HeLa cells treated with synthetic peptide; format: cell-based; details: 100 μg/ml
[5] = tested on: non-malignant and non-transformed human breast cell lines; assay: non-malignant, non-transformed human breast cell lines treated with synthetic peptide; format: cell-based; details: 100 μg/ml
[6] = tested on: non-malignant and non-transformed fibroblast cell lines; assay: non-malignant, non-transformed fibroblast cell lines treated with synthetic peptide; format: cell-based, human; details: 100 μg/ml

Substance: SEQ ID NO:1 without a leader sequence attached: peptide PPLSQETFSDLWKLL (SEQ ID NO:1) without a leader sequence attached (amino acid residue 12-26 of human p53 protein)
- effect on cultured cancer cells (cultured cancer cells): unaffected

Substance: PNC-29: control peptide of similar size, amino acid sequence MPFSTGKRIMLGE (SEQ ID NO: 25); in b48 with leader SEQ ID NO:4 at carboxy end (used as a control)
- effect on malignant or normal cells [1]: no effect
- effect on normal or tumor cells ([2]; control peptide, s.c. pump, 20 mg/mouse): no effect
- tumor diameter ([2]; over the 2-week treatment and follow-up period): 10 to 16 mm
- tumor growth ([2]; s.c. pump over 14 days, 20 mg/mouse, tumors 3 to 6 mm at start): kept growing at a continuous rate

Substance: SEQ ID NO:4: penetratin leader sequence from antennapedia protein alone, KKWKMRRNQFWVKVQRG (penetration leader sequence from antennapedia)
- effect on cultured cancer cells (cultured cancer cells): unaffected

Substance: PNC 21: p53 seq. 12-20 (PPLSQETFS) (SEQ ID NO: 2)-Leader; leader is KKWKMRRNQFWVKVQRG (SEQ ID NO:4) (PPLSQETFSKKWKMRRNQFWVKVQRG; amino acid residue 12-20 of human p53 protein; penetration leader sequence from antennapedia)
- EFFECT (TUC-3 cells): Cytotoxic
- toxicity to a wide variety of human cancer cells [3]: strongly toxic

Substance: PNC 27: p53 seq. 12-26 (PPLSQETFSDLWKLL) (SEQ ID NO: 1)-Leader; leader is KKWKMRRNQFWVKVQRG (SEQ ID NO:4) (PPLSQETFSDLWKLLKKWKMRRNQFWVKVQRG; amino acid residue 12-26 of human p53 protein; penetration leader sequence from antennapedia)
- death of TUC-3 cells (TUC-3 cells; 100 μg/ml): died within three to four days
- EFFECT (TUC-3 cells): Cytotoxic
- effect on BMRPA.430 cells (BMRPA.430 cells): not affected
- cell death in human breast carcinoma cell lines [4]: cell death was observed
- cell death in Melanoma cells (Melanoma cells): cell death was observed
- cell death in HeLa cells (HeLa cells): cell death was observed
- effect on non-malignant and non-transformed human breast cell lines [5]: no effect
- effect on non-malignant and non-transformed fibroblast cell lines [6]: no effect
- toxicity to a wide variety of human cancer cells [3]: strongly toxic
